What was measured:
U87MG cells = test: Cytotoxicity in U87MG cells (CellTiter-Glo), Embodiment 8; type: cell-based
Description: Cytotoxicity Research of RNAh-Bio-670-Paclitaxel Nanoparticles in U87MG Cells
1) Cell Culturing and Plating
U87MG cells are cultured at 37 DEG C. and 5% CO2 in the EMEM basal medium in which 10% FBS and 1% PS are respectively added. The cell density used in the experiment is above 80%. The cells are collected, and centrifuged at 1000 rpm for 4 minutes, the medium is resuspended, the cell concentration is adjusted, and it is added to the 96-well plate in a volume of 5000 cells per 90 μL, and each group has 4 replicate wells.
2) Gradient Drug Concentration Preparation and Administration […]
Medium (untreated) control: only cells without compound treatment
Blank control: without cells, used for instrument zero calibration
3) Cell Culture after Administration
4) Cells Treated by Detection Kit
The well plate is brought to a room temperature in advance and stands for 30 minutes. 100 μL of a CellTiter-Glo® reagent is added to each well of the well plate and mixed for 2 minutes on a shaker to promote cell lysis. The Perkin Elmer Envision 2104 Multilabel Reader is used to read values and the values are recorded.
5) Experiment Data Acquisition and Processing
The acquired experiment data is analyzed and processed by using excel software, and GraphPad Prism 5 software is used for curve fitting analysis.

SKOV3 cells = test: Cytotoxicity in SKOV3 cells (CellTiter 96 AQueous One Solution), Embodiment 9; type: cell-based; details: Homo sapiens, SK-OV-3; SKOV3, 96 hours
Description: 2) adjusting the cell density to 2.22×10^4/mL with a growth medium;
3) planting 90 μL/well of cell suspension into the 96-well plate, herein the number of cells per well in the plate is 2000;
4) placing the planted cell plate in the incubator at 37 DEG C. and incubating overnight;
5) performing 3.16-fold gradient dilution on the compound at 9 concentration points;
7) placing the cell culture plate in the incubator and continuously incubating for 96 hours;
8) placing the CellTiter 96® AQueous One Solution reagent at the room temperature and thawing for 90 minutes or thawing in a water bath at 37 DEG C., and placing at the room temperature and equilibrating for 30 minutes;
9) adding 20 μL/well of the CellTiter 96® AQueous One Solution reagent to the cell culture plate;
10) placing the cell culture plate in the incubator at 37 DEG C. and continuously incubating for 3 hours;
11) using a microplate reader to read a OD490 value of each well in the cell plate; and 12) data processing and analysis.
GraphPad Prism 5.0 software is used to process data graphically. In order to calculate the IC50, “S”-shaped nonlinear regression analysis is performed on the data to match an appropriate dosage-effect curve. A calculation formula of the survival rate is as follows, the IC50 may be automatically calculated in GraphPad Prism 5.0. […]

[1] = Particle size measurement (DLS hydrodynamic size); type: physicochemical
Description: (3) Particle Size Measurement
1. Preparing a potential sample (conventional-sequence DNA self-assembly product D-7) and putting into a sample pool, opening a sample pool cover of an instrument, and placing the instrument;
2. opening software, and clicking a menu, so a manual measurement parameter setting dialog box appears;
3. setting a software detection parameter; and then
4. clicking Ok to complete the settings, when a measurement dialog box appears, clicking Start to start, a DLS measurement value result of a hydrodynamic size of the self-assembly product D-7 is shown below in Table 40:
(3) Particle size measurement
(2) opening software, and clicking a menu, so a manual measurement parameter setting dialog box appears;
(3) setting a software detection parameter; and then

[2] = TM value detection by solubility curve method (SYBR Green I); type: physicochemical; details: extension fragment deformation+core short-sequence RNA nanoparticles; temperature at ½ RFUmax in 20 to 90 DEG C. taken as Tm
Description: A solubility curve method is used to detect TM values of the 7 groups of the extension fragment deformation+core short-sequence RNA nanoparticles, and the samples are consistent with the potential samples.
(1) After the sample is diluted with ultrapure water, 5 μg of the diluted sample is mixed with 2 μL of SYBR Green I dye (diluted by 1:200), a final volume is 20 μL, and the dilution concentration is as follows:
(2) It is incubated for 30 min in the dark at a room temperature; and
(3) On-machine detection is performed, a program is set to start at 20 DEG C., the temperature rises per second from 0.1 DEG C. to 95 DEG C., and reading is performed every 5 s.
Due to the particularity of the RNA samples, a temperature corresponding to ½ RFUmax in a range of 20 to 90 DEG C. is used as a sample Tm value in this test.
A solubility curve method is used to detect TM values of the 7 groups of the extension fragment deformation+core short-sequence DNA nanoparticles, and the samples are consistent with the potential samples.

Row | Molecule | inhibition rates of the drugs to the cells (U87MG cells; drug concentration is 10 μM) [%] | cell survival rate (%) (U87MG cells; treatment time 72 h, 200 nM of each sample per well (method)) | IC50 (SKOV3 cells) [nM] | Mean particle size (nm) [1] [nm] | TM value [2] [°C]
1 | CC(=O)O[C@H]1C(=O)[C@@]2(C)[C@H]([C@H](OC(=O)c3ccccc3)[C@]3(O)C[C@H](OC(=O)[C@H](O)[C@@H](NC(=O)c4ccccc4)c4ccccc4)C(C)=C1C3(C)C)[C@]1(OC(C)=O)CO[C@@H]1C[C@@H]2O [Paclitaxel, paclitaxel] | 23.77 | 56.74 | < 1 |  | 
2 | R-20: extension fragment deformation+core short-sequence RNA nanoparticles, strands SEQ ID NO: 135-137, a-strand 3′-biotin, 2′F (nucleic acid, RNA nanoparticle strands, 2'-fluoro modified, a-strand 3'-biotin, positions not given here) chain 1: GCGGCGAGCGGCGACGAGCGUUGCGGCCGGAGGCCGG chain 2: CCGGCCUCCGGCCGCUUCGCCGCCAGCCGCC chain 3: GGCGGCAGGCGGCCAUAGCCGUCGCCGCUCGCCGC |  |  |  | 7.110 | 59.5
